Measurements as given in paper PMC12662248 (ADMET & DMPK, 2025).
Entries after “also recorded” stand apart in the source; their conditions may differ. Where two headings read alike, the source gives them in different places.

Tests used:
[1] = biological target: T1, recombinant 2D6 enzymes (Homo sapiens, UniProt P10635); conditions: 60 min, 1 μM
Method: (§5) Human recombinant cytochrome 2D6 enzymes were diluted to 50 pmol mL^-1 in 50 mM phosphate buffer. […] Reactions were initiated by adding NADPH (final concentration: 1 mM), and aliquots were collected at 60 min. Samples were quenched with cold acetonitrile containing 0.1 % formic acid, centrifuged (12,000g, 15 min, 4 °C), then supernatants were dried, reconstituted, centrifuged (12,000g, 15 min, 4 °C), and subjected to an analysis on LC-HRMS..
(§6) Qualitative LC-HRMS analysis was conducted using an Ultimate 3000 pump (ThermoFisher, Germany) and a Q-Exactive Plus spectrometer. The mobile phase A was distilled water containing 0.1 % formic acid and the mobile phase B was acetonitrile containing 0.1 % formic acid. The liquid chromatography (LC) gradient spanned 22 min: 0 to 1.0 minute at 5 % B; 1.0 to 6.0 min, 5 to 15 % B; 6.0 to 14.0 mi, 15 to 25 % B; 14.0 to 16.0 min, 25 to 90 % B; 16.0 to 18.0 min, 90 to 95 % B; 18.0 to 20.0 min, 95 to 5 % B; and 20.0 to 22.0 min at 5 % B (flow rate: 0.3 mL min^-1). MS parameters included: spray voltage: 3.8 kV, capillary temperature: 320 °C, heater temperatures: 350 °C, sheath gas: 2.76 MPa, auxiliary nitrogen pressures: 0.7 MPa and tube lens voltage: 10 eV. The full scan Q1 resolution was set to 70,000, and the automatic gain control (AGC) target value was set to 5×10^5 intensity. The maximum injection time was limited to 50 ms. The dd-MS^2 resolution was set at 17,500, with the AGC target set at 5×10^4. External calibration was performed, yielding a deviation of less than 5.0 ppm. Data was processed using Xcalibur 4.1.31.9 software (ThermoFisher, Germany; https://www.thermofisher.com/order/catalog/product/OPTON-30965).
(§7) LC-HRMS raw data was extracted with Xcalibur, and metabolites were identified using Compound Discoverer 3.0 (ThermoFisher, Germany; https://www.thermofisher.com/order/catalog/product/OPTON-31061) by comparing fragment patterns between parent compounds, metabolites, and standards.

[2] = system: plateable rat hepatocytes; experiment: Metabolite identification in plateable rat hepatocytes; assay type: in vitro ADME; conditions: 10 μM metoprolol, 72 hours
Method: (§1) Cryopreserved rat, dog, monkey and human hepatocytes were thawed by immersing vials in a pre-warmed 37 °C water bath. The cell pellets were then transferred to thawing medium and centrifuged to isolate viable cells. Then, hepatocytes were diluted to 0.7 million cells mL^-1 and seeded into collagen-coated 48-well plates (0.2 mL per well) in duplicate. After 6 hours of attachment, the plating medium was replaced with incubation medium containing 1 % Matrigel™. […] Reactions were quenched at 72 hours with cold acetonitrile containing 0.1 % formic acid, and supernatants were dried under nitrogen gas. The residues were reconstituted in acetonitrile/water (1:9 volume ratio) with 0.1 % formic acid and analysed LC-HRMS. The M7 metabolite was isolated, purified, and concentrated via a mass spectrometry switching valve, followed by sample reconstitution, and subsequent analysis on LC-HRMS.
(§2) The maximum injection time was limited to 50 ms.
(§3) Hepatocyte viability data was expressed as mean±SD.

[3] = system: plateable dog hepatocytes; experiment: Metabolite identification in plateable dog hepatocytes; assay type: in vitro ADME; conditions: 10 μM metoprolol, 72 hours
Method: as §1, §2, §3

[4] = system: plateable human hepatocytes; experiment: Metabolite identification in plateable human hepatocytes; assay type: in vitro ADME; conditions: 10 μM metoprolol, 72 hours
Method: as §1, §2, §3

[5] = system: plateable monkey hepatocytes; experiment: Metabolite identification in plateable monkey hepatocytes; assay type: in vitro ADME; conditions: 10 μM metoprolol, 72 hours
Method: as §1, §2, §3

[6] = biological target: T1, recombinant 2D6 enzymes; experiment: Metabolite identification in recombinant cytochrome 2D6 enzymes; conditions: human recombinant 2D6 enzymes, 1 μM metoprolol, 60 min
Method: as §5, §6, §7

[7] = system: plateable rat hepatocytes; experiment: Plateable hepatocytes cytotoxicity (CellTiter-Glo ATP assay), rat; assay type: cell-based; conditions: 48 hours; for cytotoxicity in rat hepatocytes (words): 0 to 500 μM
Method: (§4) Cryopreserved plateable rat and human hepatocytes were thawed by immersing vials in a pre-warmed 37 °C water bath. The cell pellets were then transferred to thawing medium and centrifuged to isolate viable cells. […] Prior to the measurement, the cell culture plate was equilibrated to ambient temperature. Subsequently, 100 μL of CellTiter-Glo® reagent was dispensed into each well, followed by orbital shaking (5 min) to ensure complete cell lysis. After a 10-minute stabilization at room temperature, luminescence signals were quantified using an envision® multilabel plate reader.

[8] = system: plateable human hepatocytes; experiment: Plateable hepatocytes cytotoxicity (CellTiter-Glo ATP assay), human; assay type: cell-based; conditions: 0 to 500 μM, 48 hours, regardless of ABT co-treatment
Method: as §4

[9] = system: plateable human hepatocytes; experiment: Plateable hepatocytes stability (metoprolol depletion); assay type: in vitro ADME
Method: Cryopreserved human hepatocytes were thawed by immersing vials in a pre-warmed 37 °C water bath. The cell pellets were then transferred to thawing medium and centrifuged to isolate viable cells. […] Aliquots were collected at 0, 2, 4, 8, 24, 48 and 72 hours, and reactions were quenched with cold acetonitrile/methanol (1:1, v/v) containing labetalol (100 ng mL^-1). After centrifugation (12,000g, 15 min, 4 °C), supernatants were analysed via LC-30AD-API5500 (LC-MS/MS, SCIEX, USA) for semiquantitative assessment. […] Hepatocyte viability data was expressed as mean±SD.

[10] = system: plateable human hepatocytes; conditions: cited from earlier work

T1 sequence (P10635 whole entry): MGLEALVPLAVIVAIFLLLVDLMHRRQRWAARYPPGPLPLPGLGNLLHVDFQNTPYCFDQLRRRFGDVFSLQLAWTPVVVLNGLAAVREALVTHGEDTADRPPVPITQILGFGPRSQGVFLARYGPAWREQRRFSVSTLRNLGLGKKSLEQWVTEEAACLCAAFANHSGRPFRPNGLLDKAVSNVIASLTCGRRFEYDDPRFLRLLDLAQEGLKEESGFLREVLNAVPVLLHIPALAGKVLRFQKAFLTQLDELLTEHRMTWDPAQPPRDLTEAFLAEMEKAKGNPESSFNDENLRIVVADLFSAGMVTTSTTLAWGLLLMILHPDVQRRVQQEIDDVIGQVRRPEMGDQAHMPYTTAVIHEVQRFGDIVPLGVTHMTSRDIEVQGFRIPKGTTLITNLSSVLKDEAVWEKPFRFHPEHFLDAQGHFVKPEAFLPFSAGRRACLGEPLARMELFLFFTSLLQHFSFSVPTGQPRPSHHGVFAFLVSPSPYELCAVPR

Row | Structure (SMILES) | Relative peak area, 2D6, H [1] [%] | Relative peak area, plateable hepatocytes, R [2] [%] | Relative peak area, plateable hepatocytes, D [3] [%] | Relative peak area, plateable hepatocytes, H [4] [%] | Relative peak area, plateable hepatocytes, Mk [5] [%] | further results
1 | CC(C)NCC(O)COc1ccc(CCO)cc1 (centres unmarked) [M13, O-desmethyl-metoprolol] | 22.8 | 3.8 | 20.5 | 6.0 | 0.1 | –
2 | CC(C)NCC(O)COc1ccc(C(=O)O)cc1 (centres unmarked) [M9] | 1.7 | 0.4 | – | – | 0.2 | –
3 | COCCc1ccc(OCC(O)CN)cc1 (centres unmarked) [M18] | 6.4 | 0.1 | 5.8 | – | – | –
4 | CC(C)NCC(O)COc1ccc(CC(=O)O)cc1 (centres unmarked) [M17, metoprolol acid] | – | 57.2 | 19.9 | 14.6 | 82.6 | Relative peak area, 2D6, H [6]: 18.3%
5 | COCCc1ccc(OCC(O)CNC(C)C)cc1 (centres unmarked) [metoprolol, Metoprolol] | – | – | – | – | – | cytotoxicity in rat hepatocytes (words) ([7]; without ABT): weak cytotoxicity; also recorded: weak hepatotoxicity; cytotoxicity in rat hepatocytes (words) ([7]; without ABT, listed as Metoprolol): cytotoxic only at a concentration of 500 μM; effect of ABT pre-treatment on metoprolol cytotoxicity ([7]; rat hepatocytes, 500 μM metoprolol with 50 μM ABT): reversed the cytotoxic effect; reductions in cell viability ([7]; rat hepatocytes, 500 μM metoprolol, without ABT): > 30%; cytotoxicity in human hepatocytes (words) [8]: No significant reduction in cell viability; also recorded: no significant hepatotoxicity; cytotoxicity in human hepatocytes (words) ([8]; listed as Metoprolol): no observable cytotoxicity; in vivo CLint ([9]; extrapolated from plateable human hepatocyte CLint): 1.59 ± 0.31 mL/min/kg; in vitro intrinsic clearance (CLint) ([9]; plateable human hepatocytes, 1 μM, 72-hour incubation): 0.56±0.12 μL min^-1 per million cells; in vivo clearance ([10]; correlating with plateable human hepatocyte clearance): 1.4 mL/min/kg; clearance in hepatocytes ([10]; previously reported): 4.28 μL min^-1 per million cells; clearance in plateable human hepatocytes ([10]; previously reported): 2.2 ± 0.7 μL min^-1 per million cells
6 | COCC(O)c1ccc(OCC(O)CNC(C)C)cc1 (stereo not drawn) [M10, α-hydroxy-metoprolol] | 20.1 | 24.4 | 9.4 | 2.7 | 5.6 | –
7 | NCC(O)COc1ccc(CCO)cc1 (centres unmarked) [M3] | 1.6 | – | 0.7 | – | 0.1 | –
